Results: ChEMBL document CHEMBL3871296, “Phytochemical and cytotoxic studies on the roots of Euphorbia fischeriana” (Bioorg Med Chem Lett, 2017)

Experiments:
[1] = Cytotoxicity against human Hep3B cells assessed as cell growth inhibition by MTT assay; assay type: functional, cell-based, Hep 3B2
[2] = Cytotoxicity against human A549 cells assessed as cell growth inhibition by MTT assay; assay type: functional, cell-based

| Compound | IC50 [1] [µM] | IC50 [2] [µM] |
| --- | --- | --- |
| CC1(C)OC[C@@]2(C[C@@]34CC[C@H]5C(C)(C)C(=O)CC[C@]5(C)[C@H]3CC[C@H]2C4)O1 | 8.15 | > 100 |
| CC1(C)[C@H](O)CC[C@]2(C)[C@@H]1CC[C@@]13CC[C@@H](C[C@@H]12)[C@](O)(CO)C3 | > 100 | > 100 |
| CC1(C)CC[C@]2(C)CC[C@]3(C)C(=CC=C4[C@@]5(C)C[C@@H](O)[C@H](O)C(C)(C)[C@@H]5CC[C@]43C)[C@@H]2C1 | 12.5 | 11.9 |
| CCCCCCCCCCCCCCCC(=O)O[C@@]12C[C@@H](C)[C@@]3(O)[C@@H](C=C(C=O)C[C@]4(O)C(=O)C(C)=C[C@@H]34)[C@@H]1C2(C)C | 12 | 9.38 |
| OCC(O)C(O)C(O)c1cncc(-c2ccco2)n1 (stereo not drawn) | > 100 | > 100 |
| C=C1C[C@@]23CC[C@@H]4C(C)(C)[C@H](O)CC[C@@]4(C)[C@H]2C[C@@H]1CC3=O | > 100 | > 100 |
| CC1(C)C(=O)CC[C@]2(C)[C@@H]1CC[C@]13C[C@H](CO)[C@@H](CC[C@H]12)C3 | > 100 | > 100 |
| O=c1[nH]cc(F)c(=O)[nH]1 [FLUOROURACIL] | 9.36 | 16.6 |
| C=C(C)[C@@H]1CC[C@]2(C)CC[C@]3(C)[C@H](CC[C@@H]4[C@@]5(C)CC[C@H](OC(C)=O)C(C)(C)[C@@H]5CC[C@]43C)[C@@H]12 [LUPENYL ACETATE] | 18.7 | 29.8 |
